Like-named read-outs stand apart in the source and are kept apart here.
Assays:
[1] = cited from earlier work
[2] = Surfactant pKaH by acid-base titration
Text: Surfactant pKaH values were either collected from literature sources or measured according to the method described herein. The surfactant (1 g) was mixed with deionized water (60 g). Next, preparation steps were taken to convert all of the surfactants to their respective salt forms. Surfactants which are already in fully neutralized salt form (e.g., Geropon CG 3S, Geropon LG 3S, and Aminosyl SLG) were titrated “as is” (i.e., as received from the supplier). Surfactants in acid form were mixed with enough aqueous 0.5 M KOH (potassium hydroxide) to increase the solution pH to a pH of 10. Sodium lauroyl lactylate (Capmul S12L, 1 g) was mixed with 1.4 g TERGITOL™15-S-40 (70%), followed by enough aqueous 0.5 M KOH (potassium hydroxide) to increase the solution pH to a pH of 10. After the respective preparation steps above, the surfactant solutions were titrated with 0.5 M HCl to pH 2 while recording the pH and the amount of 0.5 M HCl added using a titrator, Mettler Toledo T70.

[3] = literature data (footnotes of Table II)

Molecule | pKaH [1, 3] | other results
CCCCCCCCCC(=O)O [Capric acid (C10), Capric acid] | 7.1-7.3 | –
CCCCCCCCCCCC(=O)O [Lauric acid (C12), Lauric acid] | 7.5 | –
CCCCCCCCCCCCCC(=O)O [Myristic acid (C14), Myristic acid] | 8.1-8.2 | –
CCCCCCCCCCCC(=O)N(C)CC(=O)O [N-Lauroyl sarcosine] | – | pKaH [2]: 5.3
CCCCCCCC/C=C\CCCCCCCC(=O)O [Oleic acid (C18:1 cis-9), Oleic acid] | 9.85 | –
CCCCCCCCCCCCCCCC(=O)O [Palmitic acid (C16), Palmitic acid] | 8.6-8.8 | –
CCCCCCCCCCCC(=O)OC(C)C(=O)OC(C)C(=O)[O-].[Na+] (stereo not shown) [Sodium lauroyl lactylate] | – | pKaH ([2]; titrated with 0.5 M HCl, pH at mid-point to the equivalence point): 5.25
CCCCCCCCCCCCCCCCCC(=O)O [Stearic acid (C18), Stearic acid] | 10.15 | –
CCCCCCCC(=O)O [n-octanoic acid] | 6.3-6.5 | –
sodium dodecylbenzenesulfonate | – | pKaH ([1]; stated in the discussion, no source given): less than 2.6

— patent publication US20240425630A1, “POLYMER DISPERSION COMPOSITION” (Dow Global Technologies LLC, priority 2021, published 2024)
